Assay results published in ChEMBL document CHEMBL6103628, “Structural Optimization of Covalent Inhibitors for Deubiquitinase ChlaDUB1 of Chlamydia trachomatis as Antibiotic Agents” (J Med Chem, 2025).
Calls of active or inactive are those of the source. No cut-off for these calls is given here.

How the values were obtained:
[1] = system: HeLa; test: Cytotoxicity against human HeLa cells assessed as cell viability at 4 to 256 ug/mL measured after 20 hrs by XTT assay; assay type: toxicity, cell-based; details: dose 4-256 µg/ml
[2] = Cytotoxicity against HDFa cells assessed as cell viability at 128 ug/mL measured after 20 hrs by XTT assay relative to control; assay type: toxicity, cell-based; details: human, at 128 µg/mL, read-out: Activity
[3] = molecular target: Ubiquitin carboxyl-terminal hydrolase 7 (Homo sapiens) (UniProt Q93009); test: Inhibition of human USP7 at 35 uM relative to control
Sequence of Ubiquitin carboxyl-terminal hydrolase 7 (Homo sapiens) (Q93009 whole entry, looked up): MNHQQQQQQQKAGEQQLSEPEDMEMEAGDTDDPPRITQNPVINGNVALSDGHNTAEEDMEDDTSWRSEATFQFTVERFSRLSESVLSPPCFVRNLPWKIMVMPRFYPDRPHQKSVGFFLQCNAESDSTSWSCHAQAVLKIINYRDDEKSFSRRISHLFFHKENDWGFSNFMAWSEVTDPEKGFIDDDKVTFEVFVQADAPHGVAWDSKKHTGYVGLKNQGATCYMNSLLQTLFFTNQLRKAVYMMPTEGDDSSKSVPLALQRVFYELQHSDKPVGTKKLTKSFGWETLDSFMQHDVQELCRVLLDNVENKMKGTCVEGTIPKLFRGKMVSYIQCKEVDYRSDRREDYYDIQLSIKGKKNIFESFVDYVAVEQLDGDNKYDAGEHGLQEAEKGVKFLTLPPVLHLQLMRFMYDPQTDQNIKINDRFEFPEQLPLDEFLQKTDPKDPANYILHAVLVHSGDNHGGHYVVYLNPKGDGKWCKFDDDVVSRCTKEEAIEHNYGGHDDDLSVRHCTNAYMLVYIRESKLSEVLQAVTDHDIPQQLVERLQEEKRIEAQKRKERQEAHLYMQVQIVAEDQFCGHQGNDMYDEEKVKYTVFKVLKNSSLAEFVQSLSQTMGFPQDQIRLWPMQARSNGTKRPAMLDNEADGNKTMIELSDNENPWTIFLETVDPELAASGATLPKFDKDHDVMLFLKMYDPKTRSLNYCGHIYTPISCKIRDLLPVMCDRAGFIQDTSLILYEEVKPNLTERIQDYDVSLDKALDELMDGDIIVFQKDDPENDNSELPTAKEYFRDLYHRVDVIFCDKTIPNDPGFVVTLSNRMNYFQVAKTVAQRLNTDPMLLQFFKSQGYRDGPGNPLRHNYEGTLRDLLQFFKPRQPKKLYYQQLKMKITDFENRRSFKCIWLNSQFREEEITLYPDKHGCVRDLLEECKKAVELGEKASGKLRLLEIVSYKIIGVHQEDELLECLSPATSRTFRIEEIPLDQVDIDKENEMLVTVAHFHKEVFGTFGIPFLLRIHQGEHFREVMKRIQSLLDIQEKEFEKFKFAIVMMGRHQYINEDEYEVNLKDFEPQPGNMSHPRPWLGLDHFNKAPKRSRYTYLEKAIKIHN

[4] = molecular target: T1, Ubiquitin carboxyl-terminal hydrolase 25 (Homo sapiens) (UniProt Q9UHP3); test: Inhibition of human USP25 at 35 uM relative to control
T1 sequence (whole entry): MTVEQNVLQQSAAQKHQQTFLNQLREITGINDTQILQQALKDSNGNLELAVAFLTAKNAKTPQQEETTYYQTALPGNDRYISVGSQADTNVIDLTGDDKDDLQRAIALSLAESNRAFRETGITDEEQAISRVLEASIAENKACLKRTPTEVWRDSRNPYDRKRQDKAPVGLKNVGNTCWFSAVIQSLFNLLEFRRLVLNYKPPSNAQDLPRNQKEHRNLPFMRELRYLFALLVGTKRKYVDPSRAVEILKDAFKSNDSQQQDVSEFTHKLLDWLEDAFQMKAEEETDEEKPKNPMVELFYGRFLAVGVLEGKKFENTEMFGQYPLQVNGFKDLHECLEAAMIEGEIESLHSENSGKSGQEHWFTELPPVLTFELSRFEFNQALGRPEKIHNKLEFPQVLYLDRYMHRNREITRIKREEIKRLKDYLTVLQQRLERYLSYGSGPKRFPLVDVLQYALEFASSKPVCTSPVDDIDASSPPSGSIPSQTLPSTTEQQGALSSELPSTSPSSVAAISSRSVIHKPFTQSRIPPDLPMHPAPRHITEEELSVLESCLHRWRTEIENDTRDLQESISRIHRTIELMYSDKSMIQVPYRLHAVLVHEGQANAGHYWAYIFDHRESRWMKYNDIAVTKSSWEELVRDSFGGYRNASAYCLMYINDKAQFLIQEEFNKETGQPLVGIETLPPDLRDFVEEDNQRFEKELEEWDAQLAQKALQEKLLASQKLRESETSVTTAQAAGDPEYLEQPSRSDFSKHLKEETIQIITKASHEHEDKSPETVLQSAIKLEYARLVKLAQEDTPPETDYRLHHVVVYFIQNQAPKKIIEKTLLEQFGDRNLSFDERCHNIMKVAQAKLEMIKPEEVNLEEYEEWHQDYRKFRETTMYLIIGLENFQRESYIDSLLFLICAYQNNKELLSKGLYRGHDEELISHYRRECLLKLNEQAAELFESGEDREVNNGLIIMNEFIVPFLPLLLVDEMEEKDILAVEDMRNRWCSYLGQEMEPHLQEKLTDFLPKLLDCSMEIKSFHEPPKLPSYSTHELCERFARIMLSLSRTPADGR

[5] = molecular target: T2, Ubiquitin thioesterase OTUB2 (Homo sapiens) (UniProt Q96DC9); test: Inhibition of human OTUB2 at 35 uM relative to control
T2 sequence (whole entry): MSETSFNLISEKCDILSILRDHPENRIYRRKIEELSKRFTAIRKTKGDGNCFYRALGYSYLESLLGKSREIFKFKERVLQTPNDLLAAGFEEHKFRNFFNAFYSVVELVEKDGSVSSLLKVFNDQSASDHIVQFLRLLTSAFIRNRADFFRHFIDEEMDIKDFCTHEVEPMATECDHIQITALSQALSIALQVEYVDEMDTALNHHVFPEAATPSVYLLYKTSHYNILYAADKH

[6] = molecular target: T3, Deubiquitinase and deneddylase Dub2 (Chlamydia trachomatis) (UniProt O84875); test: Mixed type inhibition of Chlamydia trachomatis DUB2 incubated for 60 mins
T3 sequence (whole entry): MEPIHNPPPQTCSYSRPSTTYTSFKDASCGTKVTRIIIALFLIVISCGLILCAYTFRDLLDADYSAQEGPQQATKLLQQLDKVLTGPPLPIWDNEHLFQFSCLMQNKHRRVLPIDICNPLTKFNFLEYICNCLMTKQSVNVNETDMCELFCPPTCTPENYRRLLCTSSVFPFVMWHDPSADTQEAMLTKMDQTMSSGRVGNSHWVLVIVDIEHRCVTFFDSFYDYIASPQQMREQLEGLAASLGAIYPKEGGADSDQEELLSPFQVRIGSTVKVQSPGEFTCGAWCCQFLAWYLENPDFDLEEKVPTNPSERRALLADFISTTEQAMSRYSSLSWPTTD

[7] = molecular target: T4, Ubiquitin carboxyl-terminal hydrolase 28 (Homo sapiens) (UniProt Q96RU2); test: Inhibition of human USP28 at 35 uM relative to control
T4 sequence (whole entry): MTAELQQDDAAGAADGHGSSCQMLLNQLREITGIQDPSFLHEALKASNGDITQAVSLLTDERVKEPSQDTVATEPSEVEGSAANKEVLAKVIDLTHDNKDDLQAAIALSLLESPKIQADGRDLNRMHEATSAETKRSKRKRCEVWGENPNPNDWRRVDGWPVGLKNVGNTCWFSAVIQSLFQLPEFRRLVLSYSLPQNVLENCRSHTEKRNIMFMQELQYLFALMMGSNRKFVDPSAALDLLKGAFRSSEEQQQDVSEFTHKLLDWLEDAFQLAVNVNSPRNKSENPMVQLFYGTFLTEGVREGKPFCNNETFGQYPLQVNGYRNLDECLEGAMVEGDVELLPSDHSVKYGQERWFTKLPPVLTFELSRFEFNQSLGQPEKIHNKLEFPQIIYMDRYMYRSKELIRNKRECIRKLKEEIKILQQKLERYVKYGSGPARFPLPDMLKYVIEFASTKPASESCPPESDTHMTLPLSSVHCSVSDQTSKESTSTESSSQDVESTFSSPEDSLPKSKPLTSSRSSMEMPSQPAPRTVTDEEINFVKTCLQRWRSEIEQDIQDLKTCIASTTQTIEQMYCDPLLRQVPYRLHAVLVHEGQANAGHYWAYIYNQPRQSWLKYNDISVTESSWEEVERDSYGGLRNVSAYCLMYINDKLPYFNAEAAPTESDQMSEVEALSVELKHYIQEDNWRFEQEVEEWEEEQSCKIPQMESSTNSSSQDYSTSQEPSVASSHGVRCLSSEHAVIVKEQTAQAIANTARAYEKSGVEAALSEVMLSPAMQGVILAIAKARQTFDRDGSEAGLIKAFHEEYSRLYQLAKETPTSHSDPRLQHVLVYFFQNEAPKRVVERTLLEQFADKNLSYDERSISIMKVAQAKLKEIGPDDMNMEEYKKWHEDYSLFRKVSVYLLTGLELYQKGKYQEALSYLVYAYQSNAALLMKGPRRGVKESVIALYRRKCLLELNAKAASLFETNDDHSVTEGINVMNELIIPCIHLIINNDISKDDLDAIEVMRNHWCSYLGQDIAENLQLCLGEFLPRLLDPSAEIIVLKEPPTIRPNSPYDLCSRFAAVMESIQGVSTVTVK

Q: Which results are given for N#Cc1nccc(C(=O)NCc2nn(C(=O)Cc3ccccc3)c3ccccc23)n1?
A: Activity [1]: Non-toxic; viability at 20 h, 128 ug/mL [2]: 67%; inhibition [3]: < 25%; inhibition [4]: < 25%; inhibition [5]: < 25%; inhibition [6]: Active; inhibition [7]: < 25%
